These results are taken from US11117915B2, “Antibacterial aminoglycoside analogs” (Cipla USA, Inc., priority 2007, dated 2021).

In brackets after ≈: the same amount, converted by molar mass. Like-named read-outs stand apart in the source and are kept apart here.

Assay [1] deals with P. aeruginosa ATCC 27853. In words: MIC assay, CLSI broth microdilution, P. aeruginosa ATCC 27853 (APAE001). Format: cell-based. The conditions noted are these: Pseudomonas aeruginosa, read-out: MIC APAE001. On the procedure:
(§1) Minimum inhibitory concentrations (MIC) were determined by reference Clinical and Laboratory Standards Institute (CLSI) broth microdilution methods per M7-A7 [2006]. Quality control ranges utilizing E. coli ATCC 25922, P. aeruginosa ATCC 27853 and S. aureus ATCC 29213, and interpretive criteria for comparator agents were as published in CLSI M100-S17 [2007]. Briefly, serial two-fold dilutions of the test compounds were prepared at 2× concentration in Mueller Hinton Broth. The compound dilutions were mixed in 96-well assay plates in a 1:1 ratio with bacterial inoculum. The inoculum was prepared by suspension of a colony from an agar plate that was prepared the previous day. Bacteria were suspended in sterile saline and added to each assay plate to obtain a final concentration of 5×10^5 CFU/mL. The plates were incubated at 35° C. for 20 hours in ambient air.
A general note: In broth dilution the organism is exposed to a series of concentrations in liquid medium.

Assay [2] deals with E. coli ATCC 25922. In words: MIC assay, CLSI broth microdilution, E. coli ATCC 25922 (AECO001). Format: cell-based. Particulars: for MIC: Escherichia coli, read-out: MIC AECO001; for MIC AECO001: Table 3, E. coli ATCC25922. The method, then: as §1
These MIC assays were conducted following the same protocol as set forth in Example 110. As shown, substituted sisomicin derivatives with groups other than methyl at the 6′-position have improved activity against strains expressing the AAC6′-modifying enzymes.

[3] abbreviates: APAE001 is ATCC27853, 35° C., 20 hours.
Where [4] appears, read: AECO001 is ATCC25922, 35° C., 20 hours.

As usually defined, the MIC is the lowest concentration that inhibits growth of the organism. For `CN[C@@H]1[C@@H](O)[C@@H](O[C@@H]2[C@@H](O)[C@H](O[C@H]3OC(CNCCO)=CC[C@H]3N)[C@@H](N)C[C@H]2NC(=O)[C@H](O)CCN)OC[C@]1(C)O` [Example 2, 6′-(2-Hydroxy-ethyl)-1-(4-amino-2(R)-hydroxy-butyryl)-sisomicin], the minimal inhibitory concentration (MIC) in assay [1] (ATCC27853, 20 h) was 1 to 16 µg/mL (≈ 1.69 to 27 µM); in assay [2] (ATCC25922, 20 h), 1 to 16 µg/mL (≈ 1.69 to 27 µM).

With `CN[C@@H]1[C@@H](O)[C@@H](O[C@@H]2[C@@H](O)[C@H](O[C@H]3OC(CNCC(O)CO)=CC[C@H]3N)[C@@H](N)C[C@H]2NC(=O)[C@H](O)CCN)OC[C@]1(C)O` (stereo partly drawn) [Example 3, 6′-(2-Hydroxy-propanol)-1-(4-amino-2(R)-hydroxy-butyryl)-sisomicin], the minimum inhibitory concentration (MIC) in assay [1] (ATCC27853, 20 h) is greater than 16 µg/mL; in assay [2] (ATCC25922, 20 h), 1 to 16 µg/mL (≈ 1.61 to 25.7 µM).

`CN[C@@H]1[C@@H](O)[C@@H](O[C@@H]2[C@@H](O)[C@H](O[C@H]3OC(CNCC4CCNCC4)=CC[C@H]3N)[C@@H](N)C[C@H]2NC(=O)[C@H](O)CCN)OC[C@]1(C)O` [Example 4, 6′-(Methyl-piperidin-4-yl)-1-(4-amino-2(R)-hydroxy-butyryl)-sisomicin]: the MIC in assay [1] (ATCC27853, 20 h) lay within 1 to 16 µg/mL (≈ 1.55 to 24.8 µM); in assay [2] (ATCC25922, 20 h) it was 1 to 16 µg/mL (≈ 1.55 to 24.8 µM).

As for `CN[C@@H]1[C@@H](O)[C@@H](O[C@@H]2[C@@H](O)[C@H](O[C@H]3OC(CNCC4CC4)=CC[C@H]3N)[C@@H](N)C[C@H]2NC(=O)[C@H](O)CCN)OC[C@]1(C)O` [Example 5, 6′-(Methyl-cyclopropyl)-1-(4-amino-2(R)-hydroxy-butyryl)-sisomicin], the MIC was 1 to 16 µg/mL (≈ 1.66 to 26.5 µM) in assay [1] (ATCC27853, 20 h) and less than 1 µg/mL in assay [2] (ATCC25922, 20 h).

Regarding `CN[C@@H]1[C@@H](O)[C@@H](O[C@@H]2[C@@H](O)[C@H](O[C@H]3OC(CNCCCN)=CC[C@H]3N)[C@@H](N)C[C@H]2NC(=O)[C@H](O)CCN)OC[C@]1(C)O` [Example 6, 6′-(3-Amino-propyl)-1-(4-amino-2(R)-hydroxy-butyryl)-sisomicin], the MIC in assay [1] (ATCC27853, 20 h) lay within 1 to 16 µg/mL (≈ 1.65 to 26.4 µM); in assay [2] (ATCC25922, 20 h) it was 1 to 16 µg/mL (≈ 1.65 to 26.4 µM).

In the case of `CN[C@@H]1[C@@H](O)[C@@H](O[C@@H]2[C@@H](O)[C@H](O[C@H]3OC(CNCC4CC4)=CC[C@H]3N)[C@@H](N)C[C@H]2NC(=O)[C@H](O)CN)OC[C@]1(C)O` [Example 7, 6′-Methyl-cyclopropyl-1-(3-amino-2(R)-hydroxy-propionyl)-sisomicin], the MIC in assay [1] (ATCC27853, 20 h) was 1 to 16 µg/mL (≈ 1.7 to 27.2 µM); in assay [2] (ATCC25922, 20 h), less than 1 µg/mL.

On to `CN[C@@H]1[C@@H](O)[C@@H](O[C@@H]2[C@@H](O)[C@H](O[C@H]3OC(CNCC4CCNCC4)=CC[C@H]3N)[C@@H](N)C[C@H]2NC(=O)[C@H](O)CN)OC[C@]1(C)O` [Example 8, 6′-Methyl-piperidinyl-1-(3-amino-2(R)-hydroxy-propionyl)-sisomicin], for which the MIC is 1 to 16 µg/mL (≈ 1.58 to 25.3 µM) in assay [1] (ATCC27853, 20 h) and less than 1 µg/mL in assay [2] (ATCC25922, 20 h).

Take `CN[C@@H]1[C@@H](O)[C@@H](O[C@@H]2[C@@H](O)[C@H](O[C@H]3OC(CNCCO)=CC[C@H]3N)[C@@H](N)C[C@H]2NC(=O)[C@H](O)CN)OC[C@]1(C)O` [Example 9, 6′-(2-Hydroxy-ethyl)-1-(3-amino-2(R)-hydroxy-propionyl)-sisomicin]: the MIC in assay [1] (ATCC27853, 20 h) is greater than 16 µg/mL; in assay [2] (ATCC25922, 20 h) it was 1 to 16 µg/mL (≈ 1.73 to 27.6 µM).

`CN[C@@H]1[C@@H](O)[C@@H](O[C@@H]2[C@@H](O)[C@H](O[C@H]3OC(CNCC(O)CO)=CC[C@H]3N)[C@@H](N)C[C@H]2NC(=O)[C@H](O)CN)OC[C@]1(C)O` (stereo partly drawn) [Example 10, 6′-(2-Hydroxy-propanol)-1-(3-amino-2(R)-hydroxy-propionyl)-sisomicin]: the minimum inhibitory concentration (MIC) in assay [1] (ATCC27853, 20 h) was 1 to 16 µg/mL (≈ 1.64 to 26.3 µM); in assay [2] (ATCC25922, 20 h), 1 to 16 µg/mL (≈ 1.64 to 26.3 µM).

On to `CN[C@@H]1[C@@H](O)[C@@H](O[C@@H]2[C@@H](O)[C@H](O[C@H]3OC(CNCCCN)=CC[C@H]3N)[C@@H](N)C[C@H]2NC(=O)[C@H](O)CN)OC[C@]1(C)O` [Example 11, 6′-(3-Amino-propyl)-1-(3-amino-2(R)-hydroxy-propionyl)-sisomicin], for which the MIC in assay [1] (ATCC27853, 20 h) is 1 to 16 µg/mL (≈ 1.69 to 27 µM); in assay [2] (ATCC25922, 20 h), less than 1 µg/mL.

Turning to `CN[C@@H]1[C@@H](O)[C@@H](O[C@@H]2[C@@H](O)[C@H](O[C@H]3OC(CNCC4CCNCC4)=CC[C@H]3N)[C@@H](N)C[C@H]2NC(=O)[C@@H](O)CCN)OC[C@]1(C)O` [Example 12, 6′-(Methyl-piperidin-4-yl)-1-(4-amino-2(S)-hydroxy-butyryl)-sisomicin], the MIC in assay [1] (setting [3]) and in assay [2] (setting [4]) was 1 to 16 µg/mL (≈ 1.55 to 24.8 µM) in each case. In assay [2], the MIC AECO001 is 1 µg/mL (≈ 1.55 µM).

As for `CN[C@@H]1[C@@H](O)[C@@H](O[C@@H]2[C@@H](O)[C@H](O[C@H]3OC(CNCC4CC4)=CC[C@H]3N)[C@@H](N)C[C@H]2NC(=O)[C@@H](O)CN)OC[C@]1(C)O` [Example 13, 6′-(Methyl-cyclopropyl)-1-(3-amino-2(S)-hydroxy-propionyl)-sisomicin], the MIC in assay [1] (setting [3]) is greater than 16 µg/mL; in assay [2] (setting [4]) it was 1 to 16 µg/mL (≈ 1.7 to 27.2 µM). The MIC AECO001 in assay [2] was 1 µg/mL (≈ 1.7 µM).
